Measured values from patent publication US8703767B2, “Substituted N-(3-(pyrimidin-4-yl)phenyl)acrylamide analogs as tyrosine receptor kinase BTK inhibitors” (University of Utah Research Foundation, priority 2011, dated 2014).
One block for each compound: values may come before it.

How the values were obtained:
[1] = Pharmacokinetic and bone marrow distribution study; type: in vivo; settings: CD1 mice, 5 mg/kg iv
Experimental: To determine the ability of a disclosed compound, N-(3-(5-chloro-2-((4-morpholinophenyl)amino)pyrimidin-4-yl)phenyl)acrylamide, to partition to the bone, a pharmacokinetic study in mice was carried out and coupled with a bone marrow distribution study (see FIG. 18). Briefly, CD1 mice were dosed intravenously (“iv”) with 5 mg/kg of the test compound and three animals per time point (5 min to 8 hrs) were sacrificed. Blood (plasma) and bone marrow tissue (femur) were collected from each animal and analyzed by LC/MS for standard PK parameters. […] The baseline distribution to the bone marrow of the compound was also determined.

[2] = test system: Tec family of kinase, as well as EGFR and ErbB4; assay: Kinase profiling against a panel of 40 protein kinases; type: biochemical; settings: 200 nM of test compound, ATP at Km apparent
Experimental: The specificity of kinase inhibition was assessed with a representative compound, N-(3-(5-chloro-2-((4-morpholinophenyl)amino)pyrimidin-4-yl)phenyl)acrylamide, by determining the activity of this test compound against a panel of protein kinases. Kinase profiling was performed against a focus panel of kinases relevant to BTK and the Tec family of protein kinases. […] The results from this screen confirmed good activity against the Tec family of kinase, as well as EGFR and ErbB4. These later two kinases are known to have a cysteine residue in a position suitable for reaction with the Michaels acceptor of the disclosed compounds.

[3] = test system: OPM2 cells overexpressing BTK; assay: Cell viability assay in OPM2 cells overexpressing BTK; type: cell-based; settings: Homo sapiens, OPM-2, presence of overexpressed BTK
Experimental: (§1) The cells were grown as described above, and for the assay cells were freshly harvested and then were plated in […] of appropriate media (as described above) at a density of 1000 cells per well in standard solid white-walled 384-well plates. Cells were allowed to attach by incubation overnight at 37° C. and 5% CO2. Test compounds were diluted to 10× concentrations in the appropriate media for the cell used (containing 3% DMSO) and […] of these dilutions were appropriate wells containing the cells. Test compounds were typically tested in triplicate (i.e. a given concentration of compound was assayed in triplicate wells). The plates containing the drug-treated cells and appropriate controls were incubated for 96 hours. At the end of the incubation, […] of ATP-lite (PerkinElmer, Inc., Waltham, Mass.) reagent were added to each well and luminescence signal was measured on an EnVision microplate reader.
(§2) The compounds were assessed in a cell-viability assay in OPM2 cells that either expressed endogenous levels of BTK or overexpressed BTK from an expression construct. […] Cell viability or proliferation was determined using the ATPLite Luminescence Assay (PerkinElmer, Inc., Waltham, Mass.); a decrease in luminescence activity correlates with a decrease in cell viability or proliferation.

OPM2 cells = assay: Cell viability assay in OPM2 cells with endogenous levels of BTK; type: cell-based; settings: Homo sapiens, OPM-2, absence of overexpressed BTK
Experimental: as §1, §2

wild-type EGFR (ErbB1) = wild-type EGFR (ErbB1) (Homo sapiens (Human), UniProt P00533); assay: LanthaScreen Eu Kinase Binding Assay, wild-type EGFR; settings: tracer displacement
Chain of wild-type EGFR (ErbB1) (P00533 25-1210): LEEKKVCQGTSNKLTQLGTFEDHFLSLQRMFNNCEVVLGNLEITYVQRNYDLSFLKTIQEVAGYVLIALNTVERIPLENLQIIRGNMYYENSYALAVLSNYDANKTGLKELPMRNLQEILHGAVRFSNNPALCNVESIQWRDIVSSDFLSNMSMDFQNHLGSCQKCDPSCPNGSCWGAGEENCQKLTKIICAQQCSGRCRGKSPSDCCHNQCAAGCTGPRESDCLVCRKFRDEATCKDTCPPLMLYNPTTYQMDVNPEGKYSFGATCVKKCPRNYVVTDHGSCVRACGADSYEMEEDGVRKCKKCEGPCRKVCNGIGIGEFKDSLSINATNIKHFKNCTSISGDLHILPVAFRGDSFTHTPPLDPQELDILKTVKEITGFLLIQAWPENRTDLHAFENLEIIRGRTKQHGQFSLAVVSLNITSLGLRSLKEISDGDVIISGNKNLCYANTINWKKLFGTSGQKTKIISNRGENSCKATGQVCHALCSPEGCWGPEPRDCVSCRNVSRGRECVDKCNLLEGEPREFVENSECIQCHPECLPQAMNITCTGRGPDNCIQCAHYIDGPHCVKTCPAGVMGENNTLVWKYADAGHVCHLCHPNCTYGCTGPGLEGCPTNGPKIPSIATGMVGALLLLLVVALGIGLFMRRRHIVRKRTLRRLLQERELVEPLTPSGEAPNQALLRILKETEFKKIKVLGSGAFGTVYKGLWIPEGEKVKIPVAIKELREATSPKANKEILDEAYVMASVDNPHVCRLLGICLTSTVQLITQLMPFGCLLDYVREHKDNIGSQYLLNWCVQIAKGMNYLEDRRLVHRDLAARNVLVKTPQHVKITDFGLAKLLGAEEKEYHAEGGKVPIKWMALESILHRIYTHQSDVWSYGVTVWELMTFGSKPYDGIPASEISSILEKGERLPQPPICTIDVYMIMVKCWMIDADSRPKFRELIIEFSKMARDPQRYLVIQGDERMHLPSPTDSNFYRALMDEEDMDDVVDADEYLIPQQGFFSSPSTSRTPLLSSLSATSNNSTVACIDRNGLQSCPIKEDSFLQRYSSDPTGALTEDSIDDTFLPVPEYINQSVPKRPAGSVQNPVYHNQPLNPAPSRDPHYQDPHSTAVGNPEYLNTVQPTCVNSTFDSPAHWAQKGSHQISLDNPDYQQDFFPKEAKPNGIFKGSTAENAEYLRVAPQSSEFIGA
Experimental: (§3) Based on the results obtained in the foregoing experiment, representative compounds (N-(3-(5-chloro-2-((4-morpholinophenyl)amino)pyrimidin-4-yl)phenyl)acrylamide and N-(3-(6-((4-morpholinophenyl)amino)-1H-pyrazolo[3,4-d]pyrimidin-4-yl)phenyl)acrylamide) were assayed against wild-type and a mutant form (T790M) of EGFR. The compound activity against these kinases was determined using LanthaScreen™ Eu Kinase Bindng Assay (Invitrogen division of Life Technologies, Inc., Grand Island, N.Y.). The assay measures the activity of a compound to bind and displace a proprietary, Alexa Fluor® 647-labeled, ATP-competitive kinase inhibitor scaffold (kinase tracer) to EGFR.

[4] = target: mutant form of EGFR (T790M) (Homo sapiens (Human), UniProt P00533, T790M); assay: LanthaScreen Eu Kinase Binding Assay, EGFR T790M; settings: tracer displacement
Chain of mutant form of EGFR (T790M) (P00533 25-1210 T790M): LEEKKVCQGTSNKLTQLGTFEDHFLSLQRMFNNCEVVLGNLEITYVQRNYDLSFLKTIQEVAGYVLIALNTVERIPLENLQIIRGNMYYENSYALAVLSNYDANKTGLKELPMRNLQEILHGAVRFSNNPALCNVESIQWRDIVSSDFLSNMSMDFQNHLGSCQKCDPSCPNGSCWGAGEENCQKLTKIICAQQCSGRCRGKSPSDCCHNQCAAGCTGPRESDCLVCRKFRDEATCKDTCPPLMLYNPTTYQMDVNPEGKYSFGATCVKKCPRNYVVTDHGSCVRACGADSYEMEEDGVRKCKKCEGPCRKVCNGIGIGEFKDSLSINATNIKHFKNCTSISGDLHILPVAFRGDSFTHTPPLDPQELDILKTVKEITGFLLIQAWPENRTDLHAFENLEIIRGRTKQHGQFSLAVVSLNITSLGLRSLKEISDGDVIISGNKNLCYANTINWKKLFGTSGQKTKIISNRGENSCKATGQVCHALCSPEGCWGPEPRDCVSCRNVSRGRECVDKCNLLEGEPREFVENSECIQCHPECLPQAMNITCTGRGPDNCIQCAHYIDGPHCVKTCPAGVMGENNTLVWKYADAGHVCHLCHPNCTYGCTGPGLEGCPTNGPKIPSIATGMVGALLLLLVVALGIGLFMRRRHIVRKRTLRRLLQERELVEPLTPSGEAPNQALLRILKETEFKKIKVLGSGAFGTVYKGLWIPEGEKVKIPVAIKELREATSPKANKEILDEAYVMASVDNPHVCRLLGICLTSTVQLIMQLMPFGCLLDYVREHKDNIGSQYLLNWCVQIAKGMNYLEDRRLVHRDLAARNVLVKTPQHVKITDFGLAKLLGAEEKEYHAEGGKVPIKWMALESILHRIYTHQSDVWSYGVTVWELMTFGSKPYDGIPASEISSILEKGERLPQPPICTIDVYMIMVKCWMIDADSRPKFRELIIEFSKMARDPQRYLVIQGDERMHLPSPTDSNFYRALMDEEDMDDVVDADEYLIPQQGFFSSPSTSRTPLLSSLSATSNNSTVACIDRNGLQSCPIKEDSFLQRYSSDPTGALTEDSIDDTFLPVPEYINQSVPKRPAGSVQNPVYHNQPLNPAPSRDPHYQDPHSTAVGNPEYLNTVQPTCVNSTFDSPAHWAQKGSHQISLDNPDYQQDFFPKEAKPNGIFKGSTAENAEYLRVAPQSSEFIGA
Experimental: as §3

BxPC-3 = assay: Cell viability assay (ATP-lite), BxPC-3; type: cell-based; settings: Homo sapiens, 96 hours
Experimental: (§4) All cell lines were cultured in RPMI-1640 media supplemented with 10% fetal bovine serum (“FBS”) and 1% penicillin/streptomycin (100 IU/mL penicillin and 100 μg/mL streptomycin) at 37° C. and 5% CO2. ATCC is the American Type Culture Collection (Manassas, Va.), and DSMZ is the Deutsche Sammlung von Mikroorganismen and Zellkulturen GmbH (German Collection of Microorganims and Cell Cultures; Braunschweig, Germany). The cell lines typically used in these studies are indicated below in Table II.
(§5) The cells were grown as described above, and for the assay cells were freshly harvested and then were plated in […] of appropriate media (as described above) at a density of 1000 cells per well in standard solid white-walled 384-well plates. Cells were allowed to attach by incubation overnight at 37° C. and 5% CO2. […] At the end of the incubation, […] of ATP-lite (PerkinElmer, Inc., Waltham, Mass.) reagent were added to each well and luminescence signal was measured on an EnVision microplate reader.
(§6) IC50 values are determined using GraphPad Prism 5 software. […]
(§7) The ability of compounds to inhibit the viability of cultured cells was determined using the cell viability assay described above. […] IC50 values were determined as described above. If an IC50 is indicated as “n.d.”, it was not determined in the indicated cell line.

BTK kinase = BTK kinase (Homo sapiens (Human), UniProt Q06187); assay: BTK kinase assay: time resolved-FRET (HTRF) assay; type: biochemical; settings: 10 nM BTK, 60 μM ATP, 1 μM substrate, 60 min
Chain of BTK kinase (Q06187 whole entry): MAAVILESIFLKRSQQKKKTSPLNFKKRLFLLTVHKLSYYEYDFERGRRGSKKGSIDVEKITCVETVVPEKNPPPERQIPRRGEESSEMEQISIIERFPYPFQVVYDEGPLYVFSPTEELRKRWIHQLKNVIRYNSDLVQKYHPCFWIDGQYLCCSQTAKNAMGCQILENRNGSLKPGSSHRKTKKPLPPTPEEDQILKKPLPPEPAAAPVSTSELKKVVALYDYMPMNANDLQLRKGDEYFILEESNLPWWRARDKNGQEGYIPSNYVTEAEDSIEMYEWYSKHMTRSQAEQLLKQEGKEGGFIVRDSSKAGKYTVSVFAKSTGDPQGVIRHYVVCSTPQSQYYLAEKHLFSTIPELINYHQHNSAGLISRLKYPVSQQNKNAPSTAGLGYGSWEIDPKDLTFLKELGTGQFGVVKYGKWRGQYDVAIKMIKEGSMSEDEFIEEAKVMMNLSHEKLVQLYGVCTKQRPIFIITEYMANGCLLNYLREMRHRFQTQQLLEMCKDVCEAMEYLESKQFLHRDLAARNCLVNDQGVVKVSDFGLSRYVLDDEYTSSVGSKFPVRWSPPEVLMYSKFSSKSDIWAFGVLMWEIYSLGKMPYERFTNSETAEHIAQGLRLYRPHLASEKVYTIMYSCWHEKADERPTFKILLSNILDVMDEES
Experimental: The secondary assay was a time resolved-FRET kinase assay. Test compound are diluted to desired concentrations in kinase reaction buffer and briefly incubated with BTK kinase (as described above; Invitrogen). The reaction is initiated by the addition of ATP and enzyme substrate, HTRF® KinEASE™-TK Substrate-biotin (Cisbio US, Bedford, Mass.). The composition of the reaction (10 μl) was: 1% v/v DMSO, 10 nM BTK, 60 μM ATP, and 1 μM substrate. After incubation at room temperature for 60 min, the enzyme reaction is stopped by EDTA-containing buffer, which also contains europium-labeled (Eu^3+-Cryptate) anti-phosphotyrosine antibody (Cisbio) and Streptavidin-XL665 (Cisbio). The europium-labeled antibody generates a time-resolved FRET signal with the Stepavidin-XL665, which binds to the biotinylated TK substrate through the streptavidin conjugate when the substrate is phosphorylated. After one hour incubation at room temperature, fluorescence was measured with excitation of 320 nm and dual emission of 615 and 665 nm on an EnVision microplate reader.
(§8) IC50 values are determined using GraphPad Prism 5 software. The data were entered as an X-Y plot into the software as percent inhibition for each concentration of the drug. The concentration values of the drug were log transformed and the nonlinear regression was carried out using the “sigmoidal dose-response (variable slope)” option within the GraphPad software to model the data and calculate IC50 values. The IC50 values reported are the concentration of drug at which 50% inhibition was reached.

Ramos RA-1 = assay: Cell viability assay (ATP-lite), Ramos RA-1; type: cell-based; settings: Homo sapiens, 96 hours
Experimental: as §4, §1, §8
The ability of compounds to inhibit the viability of cultured cells was determined using the cell viability assay described above. Activity data for representative compounds is shown below in Table III below for the compounds tested using the indicated cell lines (Ramos RA-1, GRANTA-519, and BxPC-3). IC50 values were determined as described above. If an IC50 is indicated as “n.d.”, it was not determined in the indicated cell line.

[5] = target: recombinant full-length human BTK kinase (Homo sapiens (Human), UniProt Q06187); assay: BTK kinase assay: ADP generation assay; type: biochemical; settings: 60 nM BTK, 1.6 μM ATP, 20 μM MBP substrate, 60 min
Chain of recombinant full-length human BTK kinase (Q06187 whole entry): as above
Experimental: Test compounds were diluted to desired concentrations in kinase reaction buffer and briefly incubated with recombinant full-length human BTK kinase with a (His)6 tag (81.3 kDa; Invitrogen Corporation, Carlsbad, Calif.). The assay as described is based on volumes used in a standard 384 well format using solid, white-wall plates. The reaction was subsequently initiated by the addition of ATP and myelin basic protein (MBP) substrate (Millipore Corporation, Waltham, Mass.). Composition of the assay reaction mixture ([…]) was: 5% v/v DMSO, 60 nM BTK, 1.6 μM ATP, and 20 μM MBP substrate. After incubation at room temperature for 60 min, […] (Promega Corporation, Madison, Wis.) was added to each well and incubated for an additional 40 minutes. The reagent stopped the kinase reaction and depleted the unconsumed ATP. Kinase Detection reagent ([…]; Promega Corporation) was then added to each well. The Kinase Detection reagent comprises reagents to convert ADP to ATP and provide luciferase and luciferin to detect ATP. Luminescence was measured on an EnVision microplate reader (PerkinElmer). The amount of luminescence from each reaction is directly correlated with BTK kinase activity. Percent inhibition and IC50 values were calculated by comparing enzyme activity in drug-treated wells to the appropriate controls.
as §8

GRANTA-519 = assay: Cell viability assay (ATP-lite), GRANTA-519; type: cell-based; settings: Homo sapiens, 96 hours
Experimental: as §4, §5, §6, §7

SMILES: C=CC(=O)Nc1cccc(-c2nc(Nc3ccc(N4CCOCC4)cc3)ncc2Cl)c1 [N-(3-(5-chloro-2-((4-morpholinophenyl)amino)pyrimidin-4-yl)phenyl)acrylamide]
dwell time, bone marrow compared to plasma [1]: higher in the bone marrow compared to plasma
plasma concentrations [1]: high plasma concentrations
time after which compound cleared in the elimination phase [1]: > 10 min
fold lower concentration in bone marrow than in plasma ([1]; mouse, bone marrow (femur) versus plasma, read-out: concentration in bone marrow compartment compared to plasma levels (fold less)): ~50
half-life ([1]; mouse, plasma): ~45 min
percent inhibition in kinase profiling [2]: good activity
IC50 [3]: ~586 nM
IC50 (OPM2 cells): ~5050 nM
IC50 (wild-type EGFR (ErbB1)): 253 nM

SMILES: C=CC(=O)Nc1cccc(-c2nc(Nc3ccc(N4CCN(C)CC4)cc3)nc3[nH]ncc23)c1 [compound 2]
IC50 (GRANTA-519): 13.7 µM
IC50 (Ramos RA-1): 18.8 µM

SMILES: C=CC(=O)Nc1cccc(-c2nc(Cl)ncc2Nc2ccccc2)c1 [compound 5]
IC50 [5]: 1.81 µM

SMILES: C=CC(=O)Nc1cccc(-c2nc(Nc3ccc(N4CCOCC4)cc3)ncc2Nc2ccccc2)c1 [compound 6]
IC50 [5]: > 100 µM

SMILES: C=CC(=O)Nc1cccc(-c2nc(Nc3ccc(N4CCOCC4)c(F)c3)ncc2Cl)c1 [compound 7]
IC50 (BTK kinase): 0.287 µM
IC50 [5]: 0.518 µM

SMILES: C=CC(=O)Nc1cccc(-c2nc(Nc3ccc(N4CCOCC4)cc3)ncc2Cl)c1 [compound 8]
IC50 (BxPC-3): 22.2 µM
IC50 (BTK kinase): 0.047 µM
IC50 (Ramos RA-1): 20.9 µM
IC50 [5]: 0.033 µM

SMILES: C=CC(=O)Nc1cccc(-c2nc(Cl)ncc2Br)c1 [compound 10]
IC50 [5]: 4.7 µM

SMILES: C=CC(=O)Nc1cccc(-c2nc(Cl)ncc2Cl)c1 [compound 11]
IC50 [5]: 14.4 µM

Second part, led by results:

IC50 (wild-type EGFR (ErbB1)): 105 nM
IC50 [4]: 2.67 nM
SMILES: C=CC(=O)Nc1cccc(-c2nc(Nc3ccc(N4CCOCC4)cc3)nc3[nH]ncc23)c1 [N-(3-(6-((4-morpholinophenyl)amino)-1H-pyrazolo[3,4-d]pyrimidin-4-yl)phenyl)acrylamide]

IC50 (BxPC-3): 7 µM
IC50 (BTK kinase): 0.045 µM
IC50 (Ramos RA-1): > 30 µM
IC50 [5]: 0.079 µM
SMILES: C=CC(=O)Nc1cccc(-c2nc(Nc3ccc(N4CCOCC4)cc3)nc3[nH]ncc23)c1 [compound 1]

IC50 (BTK kinase): 0.126 µM
IC50 [5]: 0.23 µM
SMILES: C=CC(=O)Nc1cccc(-c2nc(Nc3ccc(N4CCOCC4)c(F)c3)nc3[nH]ncc23)c1 [compound 3]

IC50 (BTK kinase): 3.77 µM
IC50 (Ramos RA-1): > 30 µM
IC50 [5]: 0.263 µM
SMILES: C=CC(=O)Nc1cccc(-c2nc(Cl)nc3[nH]ncc23)c1 [compound 4]
IC50 (GRANTA-519): > 30 µM

IC50 [5]: 1.27 µM
SMILES: C=CC(=O)Nc1cccc(-c2nc(Nc3ccc(N4CCN(C)CC4)cc3)ncc2Cl)c1 [compound 9]

IC50 [5]: 0.829 µM
SMILES: C=CC(=O)Nc1cccc(-c2nc(Cl)ncc2Nc2cccc(F)c2)c1 [compound 12]
